Source: publication PMC7497412 (RSC Advances, 2020)
pIC50: −log10 of the molar value. ≈ marks a conversion by molar mass, not a printed value. Like-named read-outs stand apart in the source and are kept apart here.

Legend:
M. abs = assay: MIC against M. abs; format: cell-based, Mycobacterium abscessus; settings: Mycobacteroides abscessus, read-out: M. abs MIC
M. avium = assay: MIC against M. avium; format: cell-based; settings: Mycobacterium avium, read-out: M. avium MIC
M. tb V4207/DS = assay: microbe, parasite or virus in culture; format: cell-based; settings: Mycobacterium tuberculosis, read-out: M. tb MIC V4207/DS
Vero cells = assay: Cytotoxicity on Vero cells; format: cell-based; settings: for SI (selectivity index): SI = IC50(Vero)/MIC
[1] = Chlorocebus sabaeus, Vero, read-out: IC50 Vero cells, cytotoxicity, Vero cells
[2] = read-out: IC50 Vero cells, cytotoxicity, Vero cells

SMILES: O=C(NC12CC3CC(CC(C3)C1)C2)c1cc(=O)c2c(Br)cccc2[nH]1 [8i, N-(1-Adamantanyl)-5-bromo-4-oxo-1,4-dihydroquinoline-2-carboxamide]
- MIC (M. abs): > 159 µM
- MIC (M. avium): > 159 µM
- MIC (M. tb V4207/DS): 9.97 µM (≈ 4 µg/mL)
- SI (selectivity index) (Vero cells): 4

SMILES: O=C(NC1CCCCCCC1)c1ccc2ccccc2c1 [13c, N-Cyclooctyl-2-naphthamide]
- MIC (M. abs): > 227 µM
- MIC (M. avium): > 227 µM
- MIC (M. tb V4207/DS): 7.11 µM (≈ 2 µg/mL)
- pIC50 (Vero cells; [1]): ≤ 3.64
- SI (selectivity index) (Vero cells): ≥32

SMILES: O=C(NC12CC3CC(CC(C3)C1)C2)c1ccc2ccccc2c1 [13d, N-(1-Adamantanyl)-2-naphthamide]
- MIC (M. abs): > 209 µM
- MIC (M. avium): > 209 µM
- MIC (M. tb V4207/DS): 6.55 to 13.1 µM (≈ 2 to 4 µg/mL)
- pIC50 (Vero cells; [1]): ≤ 3.64
- SI (selectivity index) (Vero cells): ≥64
- pIC50 (Vero cells; [2]): ≤ 3.38

SMILES: O=C(Nc1nc(-c2ccc(Cl)cc2Cl)cs1)C12CC3CC(CC(C3)C1)C2 [18b, N-(4-(2,4-Dichlorophenyl)thiazol-2-yl)adamantane-1-carboxamide]
- MIC (M. abs): > 157 µM
- MIC (M. avium): > 157 µM
- MIC (M. tb V4207/DS): 9.82 µM (≈ 4 µg/mL)
- pIC50 (Vero cells; [1]): 4.40 to 5.01
- SI (selectivity index) (Vero cells): 1
- pIC50 (Vero cells; [2]): 5.01
